How the values were obtained:
[1] = molecular target: T1, human E3 ligase component cereblon (CRBN) (Homo sapiens, UniProt Q96SW2); assay: Cereblon (CRBN) target engagement, NanoBRET TE Intracellular E3 Ligase Assay in transfected HEK-293T cells; conditions: read-out: CRBN Binding EC50
T1 construct: host or cells: HEK293T
Procedure, shortened: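 HEK-293T cells transiently co-transfected with NanoLuc-CRBN (N-terminal NanoLuc) and DDB1 were dosed with CRBN tracer and an 11-point compound series (typically 10 μM to 100 pM) for 2 h at 37° C. BRET at 450/610 nm gave IC50 by four-parameter logistic fit.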

[2] = molecular target: T2, IKZF1 (Ikaros) (Homo sapiens, UniProt Q13422); assay: IKZF1 reporter degradation assay (HEK 293T IKZF1-mNeonGreen reporter cell line); type: cell-based; conditions: 24 hours incubation
T2 construct: mScarlet (behind P2A) (C, cleaved yes); expressed in transfected cells
T2 sequence (Q96SW2 whole entry partner): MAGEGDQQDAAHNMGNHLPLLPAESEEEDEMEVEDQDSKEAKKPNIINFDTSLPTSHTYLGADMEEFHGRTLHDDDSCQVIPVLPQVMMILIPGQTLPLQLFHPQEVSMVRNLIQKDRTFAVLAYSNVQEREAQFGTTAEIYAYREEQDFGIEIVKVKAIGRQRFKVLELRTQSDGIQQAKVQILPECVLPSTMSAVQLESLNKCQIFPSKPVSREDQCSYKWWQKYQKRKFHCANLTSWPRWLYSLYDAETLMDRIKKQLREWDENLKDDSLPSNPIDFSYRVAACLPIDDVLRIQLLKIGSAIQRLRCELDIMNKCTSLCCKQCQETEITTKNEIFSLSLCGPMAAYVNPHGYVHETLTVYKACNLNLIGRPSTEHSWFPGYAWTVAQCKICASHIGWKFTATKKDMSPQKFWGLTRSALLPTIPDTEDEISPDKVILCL
T2 sequence (Q16531 whole entry partner): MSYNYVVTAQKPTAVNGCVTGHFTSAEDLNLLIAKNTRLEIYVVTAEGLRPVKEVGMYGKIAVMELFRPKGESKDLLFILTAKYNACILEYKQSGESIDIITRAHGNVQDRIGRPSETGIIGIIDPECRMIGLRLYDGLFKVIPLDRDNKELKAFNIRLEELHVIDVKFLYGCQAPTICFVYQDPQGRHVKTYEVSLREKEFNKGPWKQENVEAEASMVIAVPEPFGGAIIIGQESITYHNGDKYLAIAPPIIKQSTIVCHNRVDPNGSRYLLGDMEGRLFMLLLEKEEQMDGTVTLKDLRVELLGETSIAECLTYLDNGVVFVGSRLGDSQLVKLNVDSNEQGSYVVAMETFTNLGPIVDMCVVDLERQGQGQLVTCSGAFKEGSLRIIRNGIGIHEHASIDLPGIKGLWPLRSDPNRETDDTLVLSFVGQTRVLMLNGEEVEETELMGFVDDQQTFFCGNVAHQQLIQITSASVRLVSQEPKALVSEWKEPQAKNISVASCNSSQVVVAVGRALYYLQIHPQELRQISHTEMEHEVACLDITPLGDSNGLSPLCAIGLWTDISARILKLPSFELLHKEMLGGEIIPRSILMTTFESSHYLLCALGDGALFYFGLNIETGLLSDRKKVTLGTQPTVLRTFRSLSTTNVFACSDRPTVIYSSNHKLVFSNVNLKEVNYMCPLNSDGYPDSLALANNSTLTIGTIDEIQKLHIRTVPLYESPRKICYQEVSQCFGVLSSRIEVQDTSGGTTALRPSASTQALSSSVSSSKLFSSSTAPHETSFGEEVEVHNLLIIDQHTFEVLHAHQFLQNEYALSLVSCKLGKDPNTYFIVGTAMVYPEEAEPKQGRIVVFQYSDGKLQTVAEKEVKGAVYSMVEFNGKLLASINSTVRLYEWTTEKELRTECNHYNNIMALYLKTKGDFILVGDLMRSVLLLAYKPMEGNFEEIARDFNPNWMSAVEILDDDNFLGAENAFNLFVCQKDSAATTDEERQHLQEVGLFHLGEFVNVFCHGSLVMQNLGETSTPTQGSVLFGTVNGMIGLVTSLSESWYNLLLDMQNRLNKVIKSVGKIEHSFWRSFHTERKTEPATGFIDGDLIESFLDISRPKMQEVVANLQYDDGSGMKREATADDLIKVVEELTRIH
T2 sequence (Q13422 whole entry): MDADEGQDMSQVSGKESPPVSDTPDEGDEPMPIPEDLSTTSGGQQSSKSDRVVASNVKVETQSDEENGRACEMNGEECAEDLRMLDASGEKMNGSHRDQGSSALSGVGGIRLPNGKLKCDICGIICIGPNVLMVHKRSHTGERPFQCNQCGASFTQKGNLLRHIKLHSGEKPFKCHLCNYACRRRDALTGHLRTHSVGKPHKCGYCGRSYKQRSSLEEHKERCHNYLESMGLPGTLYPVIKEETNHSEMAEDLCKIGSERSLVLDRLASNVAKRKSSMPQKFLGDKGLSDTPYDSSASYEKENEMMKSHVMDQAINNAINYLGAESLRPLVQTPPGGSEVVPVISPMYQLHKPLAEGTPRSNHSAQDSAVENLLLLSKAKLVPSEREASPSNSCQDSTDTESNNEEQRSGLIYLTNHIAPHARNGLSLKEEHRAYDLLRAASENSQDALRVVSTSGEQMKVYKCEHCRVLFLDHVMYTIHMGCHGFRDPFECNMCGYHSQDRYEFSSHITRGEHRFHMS
Source text: Polycistronic plasmids were constructed for the mammalian expression of fluorescent reporter fusions of human transcription factors IKZF1 (Ikaros), IKZF2 (Helios), and IKZF3 (Aiolos). The respective protein sequences had their C-terminal end joined to a GGGGS linker repeated three times followed by mNeonGreen, P2A sequence, and mScarlet. The DNA sequences of the open reading frames are as follows:
IKZF1, IKZF2, and IKZF3 constructs were cloned into the UCOE Hygromycin expression vectors (Millipore Sigma). Reporter constructs were transfected using cationic lipid reagents into adherent HEK 293T cells and stable integrants were selected by treatment with 200 μg/mL hygromycin B. Clonal populations were obtained from the population of stable integrants either by limiting dilution or fluorescence activated cell sorting.
The clonal stable cell lines were maintained under constant 200 μg/mL hygromycin B selection while being passaged for use in the degradation assays. […] The fluorescence intensity of the IKZF1/2/3-mNeonGreen (FITC channel) and mScarlet (PE channel) reporters were routinely analyzed by flow cytometry to confirm consistent expression levels between experiments.
The IKZF1/IKZF2/IKZF3 degradation assays were carried out by harvesting the HEK 293T reporter cell lines and resuspending the cells in media formulated for reduced background fluorescence (FluoroBrite; Thermo Fisher). The respective cell lines were seeded at a density of 4000 cells/well into black-walled 384-well optical grade assay tissue culture plates. The cells were incubated overnight at 37° C. to allow for attachment to the assay plate. Dilutions of the compounds were prepared in DMSO from 10 mM compound stocks. The assay plates were treated with appropriate concentrations of the compounds by dispensing the DMSO dilutions in quadruplicate wells with an upper limit of 0.5% final DMSO.
After 24 hours incubation with the compounds, the assay plates were imaged on an ImageXpress Pico microscopy system (cells maintained at 37° C. during imaging) to obtain the fluorescent readouts. The assay plates were imaged in the FITC and Tetramethylrhodamine (TRITC) channels to obtain the mNeonGreen fluorescence intensity (reporter degradation data) and mScarlet fluorescence intensity (for cell segmentation). 293T-IKZF1 and 293T-IKZF3 reporter cell lines were imaged with exposures of 500 milliseconds (ms) for both FITC and TRITC channels, while the 293T-IKZF2 reporter cell line was imaged with exposures of 1000 ms for FITC and 1250 ms for TRITC. The resulting data was analyzed with Cell Reporter Xpress software using the 2-channel cell scoring analysis with a “percent positive” readout. The TRITC channel was selected for the “nuclei” segmentation with a threshold of 20 while the FITC channel was selected for the “Marker 1” segmentation and a threshold of 100 for the IKZF1 and IKZF3 reporter lines. […] The minimum segmentation width was set to 6 micrometers and the maximum segmentation width was set to 15 micrometers for all cell lines. The DC50 calculations were determined by regression to best fit four-parameter logistic curves using GraphPad Prism.

[3] = molecular target: T3, IKZF2 (Helios) (Homo sapiens, UniProt Q96SW2+Q9UKS7); assay: IKZF2 reporter degradation assay (HEK 293T IKZF2-mNeonGreen reporter cell line); type: cell-based; conditions: 24 hours incubation; for inhibition at 1 µM: HEK-293T, 24 h
T3 construct: Leu-Asp junction (codons ctcgac before the linker); mScarlet (behind P2A) (C, cleaved yes); expressed in transfected cells
T3 sequence (Q9UKS7 whole entry): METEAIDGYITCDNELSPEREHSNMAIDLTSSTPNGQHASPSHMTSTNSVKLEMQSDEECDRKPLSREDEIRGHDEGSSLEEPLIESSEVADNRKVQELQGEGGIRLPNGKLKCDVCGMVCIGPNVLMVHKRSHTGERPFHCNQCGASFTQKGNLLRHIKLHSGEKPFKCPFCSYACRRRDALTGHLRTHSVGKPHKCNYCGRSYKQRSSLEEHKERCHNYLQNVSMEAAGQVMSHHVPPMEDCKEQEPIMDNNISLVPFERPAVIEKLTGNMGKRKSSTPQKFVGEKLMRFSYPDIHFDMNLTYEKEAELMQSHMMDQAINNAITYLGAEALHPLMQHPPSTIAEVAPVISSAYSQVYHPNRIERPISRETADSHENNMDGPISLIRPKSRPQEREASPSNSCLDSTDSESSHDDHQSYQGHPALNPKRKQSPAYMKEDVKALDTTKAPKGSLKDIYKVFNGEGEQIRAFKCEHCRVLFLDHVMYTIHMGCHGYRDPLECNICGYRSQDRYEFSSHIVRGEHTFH
T3 sequence (Q96SW2 whole entry): as the sequence (Q96SW2 whole entry partner) above
T3 sequence (Q16531 whole entry partner): as the sequence (Q16531 whole entry partner) above
Procedure, shortened: (§1)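 Degradation is measured as loss of mNeonGreen fused C-terminally to each human IKZF protein in clonal HEK 293T cells, with co-expressed mScarlet as reference. Treatment lasts 24 h at 37 °C. DC50 is derived by logistic fitting of percent positive cells.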

[4] = molecular target: T4, IKZF2 (Helios) (Homo sapiens, UniProt Q9UKS7); assay: as above; type: cell-based; conditions: 24 hours incubation
T4 construct: Leu-Asp junction (codons ctcgac before the linker); mScarlet (behind P2A) (C, cleaved yes); expressed in transfected cells
T4 sequence (Q9UKS7 whole entry): as the sequence (Q9UKS7 whole entry) above
T4 sequence (Q96SW2 whole entry, further chain): as the sequence (Q96SW2 whole entry partner) above
T4 sequence (Q16531 whole entry partner): as the sequence (Q16531 whole entry partner) above
Procedure, shortened: as §1

[5] = molecular target: T5, IKZF3 (Aiolos) (Homo sapiens, UniProt Q9UKT9); assay: IKZF3 reporter degradation assay (HEK 293T IKZF3-mNeonGreen reporter cell line); type: cell-based; conditions: 24 hours incubation
T5 construct: Leu-Asp junction (codons ctcgac before the linker); mScarlet (behind P2A) (C, cleaved yes); expressed in transfected cells
T5 sequence (Q96SW2 whole entry partner): as the sequence (Q96SW2 whole entry partner) above
T5 sequence (Q16531 whole entry partner): as the sequence (Q16531 whole entry partner) above
T5 sequence (Q9UKT9 whole entry): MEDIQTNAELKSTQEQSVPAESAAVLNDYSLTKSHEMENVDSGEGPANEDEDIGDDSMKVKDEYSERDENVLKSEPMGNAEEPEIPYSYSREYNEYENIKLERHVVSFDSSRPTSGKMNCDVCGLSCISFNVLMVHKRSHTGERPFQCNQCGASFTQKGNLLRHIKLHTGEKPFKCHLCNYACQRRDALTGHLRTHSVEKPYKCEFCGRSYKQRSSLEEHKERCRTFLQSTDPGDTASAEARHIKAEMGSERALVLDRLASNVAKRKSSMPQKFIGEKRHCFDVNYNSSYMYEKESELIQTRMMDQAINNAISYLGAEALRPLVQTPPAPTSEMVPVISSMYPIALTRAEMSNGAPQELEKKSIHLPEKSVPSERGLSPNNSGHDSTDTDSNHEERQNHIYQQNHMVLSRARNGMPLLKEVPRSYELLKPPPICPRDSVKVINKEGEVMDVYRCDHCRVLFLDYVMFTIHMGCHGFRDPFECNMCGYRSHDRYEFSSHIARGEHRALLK
Procedure, shortened: as §1

[6] = HEK 293T IKZF1-mNeonGreen reporter
[7] = @ 1 μM, HEK 293T IKZF2-mNeonGreen reporter
[8] = HEK 293T IKZF2-mNeonGreen reporter
[9] = HEK 293T IKZF3-mNeonGreen reporter
[10] = 1 μM compound, HEK 293T IKZF2 reporter cells

T1 sequence (Q96SW2 whole entry): as the sequence (Q96SW2 whole entry partner) above
T1 sequence (Q16531 whole entry partner): as the sequence (Q16531 whole entry partner) above

EC50 [1]	DC50 [2, 6]	inhibition at 1 µM [3, 7]	DC50 [4, 8]	DC50 [5, 9]	IKZF2 % Degradation @ 1 μM [3, 7]	DC50 ([2]; HEK 293T IKZF1 reporter cells)	inhibition at 1 µM [3, 10]	DC50 ([4]; HEK 293T IKZF2 reporter cells)	DC50 ([5]; HEK 293T IKZF3 reporter cells)	Structure (SMILES)
2 nM	> 30000 nM	70.3%	4 nM	> 30000 nM	–	–	–	–	–	O=C1CCC(N2Cc3cc(OC4CCCCC4N4CC(c5ncc(C6CC6)cn5)C4)ccc3C2=O)C(=O)N1 (stereo not shown) [Compound 177-B, 3-(5-((2-(3-(5-cyclopropylpyrimidin-2-yl)azetidin-1-yl)cyclohexyl)oxy)-1-oxoisoindolin-2-yl)piperidine-2,6-dione]
17 nM	> 30000 nM	79.6%	21 nM	> 30000 nM	–	–	–	–	–	Cc1cnc(C2CN([C@H]3CCCC[C@H]3Oc3ccc4c(c3)CN(C3CCC(=O)NC3=O)C4=O)C2)nc1 (mixture of isomers) [Compound 184-B, Rac-3-(5-(((cis)-2-(3-(5-methylpyrimidin-2-yl)azetidin-1-yl)cyclohexyl)oxy)-1-oxoisoindolin-2-yl)piperidine-2,6-dione]
214 nM	> 30000 nM	17.6%	601 nM	> 30000 nM	–	–	–	–	–	O=C1CCC(N2Cc3cc(OC4CCC[C@@H]4N4CC(c5cncnc5)C4)ccc3C2=O)C(=O)N1 (mixture of isomers) [Compound 196-B, Rac-3-(1-oxo-5-(((cis)-2-(3-(pyrimidin-5-yl)azetidin-1-yl)cyclopentyl)oxy)isoindolin-2-yl)piperidine-2,6-dione]
52 nM	> 30000 nM	66.7%	31 nM	> 30000 nM	–	–	–	–	–	O=C1CCC(N2Cc3cc(O[C@H]4CCCC[C@@H]4N4CC(c5ccncc5Cl)C4)ccc3C2=O)C(=O)N1 (mixture of isomers) [Compound 173-B, Rac-3-(5-(((trans)-2-(3-(3-chloropyridin-4-yl)azetidin-1-yl)cyclohexyl)oxy)-1-oxoisoindolin-2-yl)piperidine-2,6-dione]
28 nM	> 30000 nM	27.5%	216 nM	–	–	–	–	–	–	O=C1CCC(N2Cc3cc(O[C@H]4CCCC[C@@H]4N4CC(c5ccncc5)C4)ccc3C2=O)C(=O)N1 (single isomer, unassigned) [Compound 85-B]
76 nM	> 30000 nM	–	189 nM	–	22.5%	–	–	–	–	O=C1CCC(N2Cc3cc(O[C@H]4CCCC[C@H]4N4CC(c5ccncc5)C4)ccc3C2=O)C(=O)N1 (single isomer, unassigned) [Compound 86-B]

More lines, now with the values behind:

Structure (SMILES)	EC50 [1]	DC50 [2, 6]	inhibition at 1 µM [3, 7]	DC50 [4, 8]	DC50 [5, 9]	IKZF2 % Degradation @ 1 μM [3, 7]	DC50 ([2]; HEK 293T IKZF1 reporter cells)	inhibition at 1 µM [3, 10]	DC50 ([4]; HEK 293T IKZF2 reporter cells)	DC50 ([5]; HEK 293T IKZF3 reporter cells)
O=C1CCC(N2Cc3cc(OC4CCCCC4N4CC(c5ncc(F)cn5)C4)ccc3C2=O)C(=O)N1 (stereo not shown) [Compound 6-B, 3-(5-((2-(3-(5-fluoropyrimidin-2-yl)azetidin-1-yl)cyclohexyl)-oxy)-1-oxoisoindolin-2-yl)piperidine-2,6-dione]	–	–	–	–	–	–	> 30000 nM	74.9%	29.9 nM	> 30000 nM
O=C1CCC(N2Cc3cc(OC4CCCCC4N4CC(c5ccnc(C(F)(F)F)c5)C4)ccc3C2=O)C(=O)N1 (stereo not shown) [Compound 1-B, 3-(1-oxo-5-((2-(3-(2-(trifluoromethyl)pyridin-4-yl)azetidin-1-yl)cyclohexyl)oxy)isoindolin-2-yl)piperidine-2,6-dione]	–	–	–	–	–	–	> 30000 nM	32.1%	525 nM	> 30000 nM
COc1ccc(C2CN(C3CCCCC3Oc3ccc4c(c3)CN(C3CCC(=O)NC3=O)C4=O)C2)cn1 (stereo not shown) [Compound 16-B, 3-(5-((2-(3-(6-methoxypyridin-3-yl)azetidin-1-yl)cyclohexyl)oxy)-1-oxoisoindolin-2-yl)piperidine-2,6-dione]	–	–	–	–	–	–	> 30000 nM	80.6%	22.6 nM	> 30000 nM
COc1cc(C2CN(C3CCCCC3Oc3ccc4c(c3)CN(C3CCC(=O)NC3=O)C4=O)C2)ccn1 (stereo not shown) [Compound 11-B, 3-(5-((2-(3-(2-methoxypyridin-4-yl)azetidin-1-yl)cyclohexyl)oxy)-1-oxoisoindolin-2-yl)piperidine-2,6-dione]	–	–	–	–	–	–	> 30000 nM	78.2%	20.7 nM	> 30000 nM
O=C1CCC(N2Cc3cc(O[C@H]4CCCC[C@@H]4N4CC(C5CCOCC5)C4)ccc3C2=O)C(=O)N1 (stereo partly drawn) [Compound 1-A, 3-(1-oxo-5-(((1S,2S)-2-(3-(tetrahydro-2H-pyran-4-yl)azetidin-1-yl)cyclohexyl)oxy)isoindolin-2-yl)piperidine-2,6-dione]	–	–	–	–	–	–	> 30000 nM	83.4%	8.89 nM	> 30000 nM
O=C1CCC(N2Cc3cc(OC4CCCCC4N4CC(c5cnccn5)C4)ccc3C2=O)C(=O)N1 (stereo not shown) [Compound 2-B, 3-(1-oxo-5-((2-(3-(pyrazin-2-yl)azetidin-1-yl)cyclohexyl)oxy)isoindolin-2-yl)piperidine-2,6-dione]	–	–	–	–	–	–	> 30000 nM	63.1%	120 nM	> 30000 nM
COc1ncc(C2CN(C3CCCCC3Oc3ccc4c(c3)CN(C3CCC(=O)NC3=O)C4=O)C2)cn1 (stereo not shown) [Compound 76-B, 3-(5-((2-(3-(2-methoxypyrimidin-5-yl)azetidin-1-yl)cyclohexyl)oxy)-1-oxoisoindolin-2-yl)piperidine-2,6-dione]	–	–	–	–	–	–	> 30000 nM	84.6%	28.6 nM	> 30000 nM
O=C1CCC(N2Cc3cc(OC4CCCCC4N4CC(c5ccccn5)C4)ccc3C2=O)C(=O)N1 (stereo not shown) [Compound 51-B, 3-(1-oxo-5-((2-(3-(pyridin-2-yl)azetidin-1-yl)cyclohexyl)oxy)isoindolin-2-yl)piperidine-2,6-dione]	–	–	–	–	–	–	> 30000 nM	24%	321 nM	> 30000 nM
O=C1CCC(N2Cc3cc(OC4CCCCC4N4CC(c5cccnc5)C4)ccc3C2=O)C(=O)N1 (stereo not shown) [Compound 36-B, 3-(1-oxo-5-((2-(3-(pyridin-3-yl)azetidin-1-yl)cyclohexyl)oxy)isoindolin-2-yl)piperidine-2,6-dione]	–	–	–	–	–	–	> 30000 nM	49.9%	188 nM	> 30000 nM
O=C1CCC(N2Cc3cc(OC4CCCCC4N4CC(c5ccnc6ccccc56)C4)ccc3C2=O)C(=O)N1 (stereo not shown) [Compound 66-B, 3-(1-oxo-5-((2-(3-(quinolin-4-yl)azetidin-1-yl)cyclohexyl)oxy)isoindolin-2-yl)piperidine-2,6-dione]	–	–	–	–	–	–	> 30000 nM	86.4%	13.2 nM	> 30000 nM
O=C1CCC(N2Cc3cc(OC4CCCCC4N4CC(c5cccc6[nH]ncc56)C4)ccc3C2=O)C(=O)N1 (stereo not shown) [Compound 71-B, 3-(5-((2-(3-(1H-indazol-4-yl)azetidin-1-yl)cyclohexyl)oxy)-1-oxoisoindolin-2-yl)piperidine-2,6-dione]	–	–	–	–	–	–	> 30000 nM	79.3%	28.3 nM	> 30000 nM
O=C1CCC(N2Cc3cc(OC4CCCCC4N4CC(c5ccncc5)C4)ccc3C2=O)C(=O)N1 (stereo not shown) [Compound 31-B, 3-(1-oxo-5-((2-(3-(pyridin-4-yl)azetidin-1-yl)cyclohexyl)oxy)isoindolin-2-yl)piperidine-2,6-dione]	–	–	–	–	–	–	> 30000 nM	74%	47.8 nM	> 30000 nM

From US20250100996A1, “HETEROCYCLOALKYL AND HETEROARYL COMPOUNDS AND PHARMACEUTICAL COMPOSITIONS THAT MODULATE IKZF2” (Plexium, Inc., priority 2021, published 2025)
